Results taken from patent US5232917A, “Methods, compositions, and compounds for allosteric modulation of the GABA receptor by members of the androstane and pregnane series” (priority 1991, dated 1993).
Where two headings read alike, the source gives them in different places.

How the values were obtained:
BZ receptor = assay: [3H]flunitrazepam binding to the BZ receptor in rat hippocampal homogenates; details: pentobarbital 1.0 mM; 0.25 nM [3H]FLU; no GABA; FIG. 3
[1] = tested on: GABA receptor complex (36Cl uptake, cerebral cortical synaptoneurosomes); assay: GABA-stimulated 36Cl uptake in rat cerebral cortical synaptoneurosomes; type: biochemical, rat (male Sprague-Dawley)
progesterone receptor = target: T1, progesterone receptor (Bos taurus, UniProt F1N712); assay: Inhibition of 3H-progesterone binding to bovine uteral progesterone receptors
T1 construct: from tissue; host or cells: bovine uterus cytosol
T1 sequence (F1N712 1-914): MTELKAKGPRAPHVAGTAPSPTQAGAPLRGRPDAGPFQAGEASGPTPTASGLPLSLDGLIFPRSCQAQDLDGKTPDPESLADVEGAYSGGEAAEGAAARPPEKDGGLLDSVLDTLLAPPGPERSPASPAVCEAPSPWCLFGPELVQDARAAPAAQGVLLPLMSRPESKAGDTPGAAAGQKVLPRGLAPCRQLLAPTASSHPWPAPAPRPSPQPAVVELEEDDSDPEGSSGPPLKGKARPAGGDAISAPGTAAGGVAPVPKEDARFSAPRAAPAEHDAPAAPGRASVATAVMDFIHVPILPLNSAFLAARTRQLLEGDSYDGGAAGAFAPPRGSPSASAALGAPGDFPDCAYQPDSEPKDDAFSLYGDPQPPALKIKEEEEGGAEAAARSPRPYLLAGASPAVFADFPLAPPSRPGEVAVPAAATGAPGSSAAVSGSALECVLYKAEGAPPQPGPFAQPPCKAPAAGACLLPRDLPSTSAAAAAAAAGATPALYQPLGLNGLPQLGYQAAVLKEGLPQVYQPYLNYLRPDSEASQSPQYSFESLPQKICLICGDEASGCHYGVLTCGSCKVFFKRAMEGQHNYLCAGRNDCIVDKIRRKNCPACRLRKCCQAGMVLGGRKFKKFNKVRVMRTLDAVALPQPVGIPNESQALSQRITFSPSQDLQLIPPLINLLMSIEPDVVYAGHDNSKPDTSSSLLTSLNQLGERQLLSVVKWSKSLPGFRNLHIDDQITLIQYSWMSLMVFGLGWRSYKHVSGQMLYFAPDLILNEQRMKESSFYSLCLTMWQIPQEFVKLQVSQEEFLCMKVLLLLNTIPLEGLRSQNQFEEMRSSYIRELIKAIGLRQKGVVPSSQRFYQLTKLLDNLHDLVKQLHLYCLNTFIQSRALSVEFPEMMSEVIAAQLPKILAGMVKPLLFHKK
Method in brief: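 Bovine uterine cytosol served as the progesterone receptor source. Compounds were scored by their inhibition of ^3H-progesterone binding.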

locomotor activity = assay: Locomotor activity in habituated mice; type: in vivo, mice (male N.I.H. Swiss-Webster)
Description: For evaluation of a drug's effects on general activity, mice were first habituated to the open-field apparatus for 15 min. The following day, mice were pretreated with a test drug and placed in the center of the activity chambers. The total distance traveled was measured for 10 min.
(§1) The vehicle control data were analyzed across test days using an 1-way analysis of variance (ANOVA). […] The dose-response curves were then analyzed using an 1-way ANOVA, followed by Dunnett's t-test for individual comparisons between doses and control. The open-field and habituated locomotor data were analyzed using ANOVA followed by Dunnett's t-test. […] All data is expressed as the mean±S.E.M.

punished responding = assay: Vogel conflict paradigm (lick suppression); type: in vivo, mice (male N.I.H. Swiss-Webster); details: 3α-OH-DHP 20 mg/kg
Description: An Anxio-Monitor (Omnitech Electronics, Columbus, Ohio) was used for measuring lick suppression. The testing chamber consisted of a clear plexiglass box (29 cm×29 cm×23 cm) with a metal drinking tube located 2.5 cm from the floor and extending 2 cm into the box. The shock was applied through the drinking spout and was controlled by the Anxio-Monitor. […] The reinforcer was 0.1M sucrose.
The conflict test procedure described by Vogel et al. (1980) was employed. This procedure is a modification of the original lick suppression test first described by Vogel et al. (1971). After 24 hr. of water deprivation,mice were allowed to explore the test apparatus and drink without punishment for 10 min. or 100 licks. […] Mice were allowed unpunished access to the drinking tube for 20 licks, thereafter, every 10th lick was punished with 0.1 mA shock. The test duration was 5 min.
as §1

[2] = tested on: picrotoxin-induced convulsions; details: dissolved in DMSO; Belelli et al., 1989; cited from earlier work
[3] = tested on: strychnine-induced convulsions; details: dissolved in DMSO; Belelli et al., 1989; cited from earlier work
[4] = dissolved in DMSO; Belelli et al., 1989; cited from earlier work
[5] = read-out: % of inhibition of 3H-progesterone binding, A, competitor 10^-5 M, 0.15 nM 3H-progesterone
[6] = read-out: % of inhibition of 3H-progesterone binding, A, competitor 10^-6 M, 0.15 nM 3H-progesterone
[7] = read-out: % of inhibition of 3H-progesterone binding, B, competitor 10^-5 M, 0.25 nM 3H-progesterone
[8] = read-out: % of inhibition of 3H-progesterone binding, B, competitor 10^-6 M, 0.25 nM 3H-progesterone

Row | SMILES | interaction with pentobarbital in the enhancement of [3H]FLU binding (BZ receptor) | enhancement of GABA-stimulated 36Cl uptake above GABA alone ([1]; 3α-OH-DHP 500 nM alone, GABA 25 μM, FIG. 4) | % enhancement of basal 36Cl uptake ([1]; GABA (25 μM) + 3α-OH-DHP (500 nM)) | effect on basal 36Cl uptake ([1]; steroid alone, no GABA) | inhibition at 10 µM (progesterone receptor; [5]) | inhibition at 1 µM (progesterone receptor; [6]) | inhibition at 10 µM (progesterone receptor; [7]) | inhibition at 1 µM (progesterone receptor; [8]) | total distance traveled, acclimated mice (locomotor activity; 3α-OH-DHP 20 mg/kg, controls 2061.2±157.7 cm, p<0.01) | effect on locomotor activity (locomotor activity; acclimated mice) | increase in number of shocks received vs controls (punished responding; 5 min session, p=0.01, FIG. 14) | number of shocks received (punished responding; controls […]) | ED50 PICRO (picrotoxin) [2] | ED50 STR (strychnine) [3] | LD50 [4]
1 | CC(=O)[C@H]1CC[C@H]2[C@@H]3CC[C@H]4C[C@H](O)CC[C@]4(C)[C@H]3CC[C@]12C [Example 3α-OH-DHP, 3α-hydroxy-5α-pregnan-20-one] | does not interact | 60% | 194 ± 8% | no effect | 41% | 14% | 40% | 2% | 5694.7±608.4 cm | significant increase in locomotor activity | 235.6% | 13.9±2.1 | 31.7 ± 1.1 mg/kg | > 300 mg/kg | > 500 mg/kg
2 | C[C@]12CC[C@@H](O)C[C@@H]1CC[C@@H]1[C@@H]2CC[C@]2(C)[C@@H](C(=O)CO)CC[C@@H]12 [Example 5α-THDOC, 3α,21-dihydroxy-5α-pregnan-20-one] | – | – | – | – | 35% | 13% | 28% | 5% | – | – | – | – | – | – | –
